“Also recorded” adds a separate entry of the source.
Columns and labels:
[1] = test system: quadriceps of Long-Evans rats; test: In vivo osteogenic activity, poly(lactide)-poly(glycolide) scaffold implants in quadriceps; design: species or system rat; conditions: for mineral deposition in implants, Alizarin Red and von Kossa staining / radiograph of implants after excision, mineralization pattern / vascularization, cell infiltration and extracellular matrix in implants (H&E) / ingrowth of capillaries and extracellular matrix formation, r(A-4) versus rA4 implants: 4 weeks; for vascularization, cell infiltration and extracellular matrix in implants (H&E): FIG. 15; for activity in inducing onset of osteogenesis in muscle implants in vivo: compared with rBMP-2
Description: In vivo osteogenic activity. The recombinant proteins, Emdogain and controls were each included in a bioabsorbable polymer matrix implants. The implants were prepared in poly (lactide)-poly(glycolide) scaffolds by the procedure of Whang et al. (1998) with 167 μg per implant. Implants were placed in the quadriceps of the hind legs of 100 g, 4 week old, male Long-Evans rats. Each animal received a negative control implant containing 167 μg of BSA in PBS. The implants were kept in place for 28 days. The implants were removed and radiographed, then they were fixed in 4% paraformaldehyde, dehydrated in graded ethanol and embedded in paraffin. Sections (7μ thick) were cut and stained with either Von Kossa or Alizarin Red dyes, both of which can indicate the presence of mineralized deposits containing divalent cations. To assure that the stains seen were calcific deposits, serial sections were treated with 5% EGTA for 10 min before staining.

[2] = test system: embryonic muscle fibroblasts (EMF); test: EMF [35S]-SO4-incorporation assay (sulfate incorporation into proteoglycan); assay type: cell-based, rat; conditions: for activity in directing change in phenotype of embryonic rat muscle fibroblasts in vitro: compared with rBMP-2
Description: Embryonic Muscle Fibroblast (EMF) Tissue Culture Assay Embryonic Muscle Fibroblasts. Rat EMF cells were derived from the thigh muscles of 20 day old Sprague Dawley rat embryos for use in primary tissue culture assays using a modification of the Koskinen harvesting technique (Koskinen et al., 1985), and grown in growth media (GM) [α-Modified Eagle's Medium (αMEM , Life Technologies, Gaithersburg, Md.), containing 10% heat inactivated fetal bovine serum (FBS), 1% Penicillin/Streptomycin (P/S)] in 5% O2/95% air at 37° C. EMFs were frozen at passage 2 (P-2).
Short Term Culture and Labeling with ^35SO4—Sulfate. The EMFs were plated (day 0) at a concentration of 10^4 cells per well in a 96 well plate which had been precoated with 100 μl of a 50 μg/ml solution of type I Rat Tail Collagen (Collaborative Biomedical Products). The cells were grown for 5 days in GM. On day 5, the cells were conditioned by removing the GM and adding conditioning media (CM) (αMEM containing 0.5% FBS, 1 % P/S) for 24 hours. This media was replaced with 100 μl of fresh CM, just prior to the addition of the test factors (hour 0). Test factors were added to test wells in triplicate. PBS/0. […] 1% BSA, were used as positive controls. Four hours following the addition of factors, the cells were labeled with 1 μCi ^35S—SO4/10 μl sterile PBS/well/96 well plate for 20 hours.
Assay of ^35S Sulfate Incorporation Into Proteoglycans in the Medium. In a departure from the Koskinen et al. (1985) protocol, glycosaminoglycan synthesis was routinely determined by the measurement of incorporation of ^35S sulfate (ICM Biomedical, Costa Mesa, Calif.) into the total cetylpyridinium chloride (CPC)-precipitable materials in the media without prior papain digestion. […] The total medium from each well (˜115 μl) was placed into a 13×100 mm glass culture tube. 150 μl of 100 μg/ml Chondroitin Sulfate A Sodium Salt (Sigma, St. Louis, Mo.) at 4° C. (buffer C), was added to each tube to serve as a carrier. 500 μl of 2.0 mM MgSO4. 4° C. (buffer B), was added. The mixture was incubated in a 37° C. water bath with shaking for 30 minutes. One ml of 1% CPC in 0.02M NaCl (buffer D) was added and incubated at 37° C. for 60 minutes in the water bath.
The samples were filtered through Whatman GF/A glass microfibre filters using a Millipore 12 well filtration device. The contents of each glass tube were individually poured into one of the wells under suction. The tube and filters were washed with buffer B 3 times. The filters were allowed to dry briefly, and were transferred to a scintillation vial. Then 5 ml scintillation cocktail was added per vial and the radioactive counts were measured in the scintillation counter.
In vitro assay for chondrogenic activity: The purified recombinant proteins were tested for biological activity by the assay for enhanced incorporation of ^35S—SO4 into proteoglycan (8,11) by embryonic rat muscle fibroblasts (EMF). The EMF were seeded onto type I collagen coated 96 well plates, with an initial loading of 10^4 cell/well. The cells were grown to near confluence in alpha MEM, 10% FBS, 1% Pen/Strep in 5 days. At day 5 the growth media was replaced with conditioning media (CM), alpha MEM, 0.5% FBS, 1% Pen/Strep, and grown for an additional 24 h. Fresh CM containing the factors to be tested, was added at the concentrations noted. Four hours later, 1 μCi^35 S—SO4 in 10 μL sterile PBS was added per well, and incubation was continued for 20 h. The ^35S—SO4 incorporated into secreted proteoglycan was determined by precipitation of the proteoglycan with cetyl pyridinium chloride, as described above, followed by scintillation counting of the precipitate. The cell layer was trypsinized and the number of cells counted.

[3] = test system: embryonic rat muscle fibroblasts (EMF); test: Cell number of EMF after exposure to factors; assay type: cell-based; conditions: after 5 days in culture, after a 24 h exposure
Description: In vitro assay for chondrogenic activity: The purified recombinant proteins were tested for biological activity by the assay for enhanced incorporation of ^35S—SO4 into proteoglycan (8,11) by embryonic rat muscle fibroblasts (EMF). The EMF were seeded onto type I collagen coated 96 well plates, with an initial loading of 10^4 cell/well. The cells were grown to near confluence in alpha MEM, 10% FBS, 1% Pen/Strep in 5 days. At day 5 the growth media was replaced with conditioning media (CM), alpha MEM, 0.5% FBS, 1% Pen/Strep, and grown for an additional 24 h. Fresh CM containing the factors to be tested, was added at the concentrations noted. Four hours later, 1 μCi^35 S—SO4 in 10 μL sterile PBS was added per well, and incubation was continued for 20 h. The ^35S—SO4 incorporated into secreted proteoglycan was determined by precipitation of the proteoglycan with cetyl pyridinium chloride, as described above, followed by scintillation counting of the precipitate. The cell layer was trypsinized and the number of cells counted. Incorporation is presented as counts per minute per cell ×10^3. Recombinant human BMP2 (A kind gift from the Genetics Institute, Boston, Mass.) and the bioactive crude S100 fractions from rat incisor dentin (Amar et al., 1991) and/or bovine dentin (see Example 1) were used as the positive controls. […]

r(A-4): recombinant polypeptide SEQ ID NO:5, secreted form of rat amelogenin gene splice product, exons 2, 3, 5, 6d and 7 (MPLPPHPGSPGYINLSYEVLTPLKWYQSMIRQPPLSPILPELPLEAWPATDKTKREEVD; Recombinant rat amelogenin)
alkaline phosphatase in implants ([1]; 167 μg per implant): positive
mineral deposition in implants, Alizarin Red and von Kossa staining ([1]; 167 μg per implant): stained strongly
radiograph of implants after excision, mineralization pattern ([1]; 167 μg per implant): heavier mineralization around the periphery
vascularization, cell infiltration and extracellular matrix in implants (H&E) ([1]; 167 μg per implant): vascularized and filled with extracellular matrix; also recorded: infiltrated by many cells, and an abundant network of capillaries
mineral deposition in implants, Alizarin Red and von Kossa staining ([1]; 167 μg per implant, listed as (A-4)): highly positive for deposition of mineral
ingrowth of capillaries and extracellular matrix formation, r(A-4) versus rA4 implants [1]: more prominent
activity in inducing onset of osteogenesis in muscle implants in vivo [1]: equivalent to rBMP-2
activity in directing change in phenotype of embryonic rat muscle fibroblasts in vitro [2]: equivalent to rBMP-2
concentration as low as which production of 35S-SO4-labeled proteoglycan was stimulated ([2]; monolayer culture, FIG. 13): 1 ng/mL
concentration as low as which production of 35S-SO4-labeled proteoglycan was stimulated (molar) ([2]; monolayer culture, FIG. 13): ~140 pM
cell number (growth factor action) [3]: did not increase

B1: rB4: recombinant full-length rat amelogenin, exons 2, 3, 4, 5, 6 and 7 (protein, UniProt P63278 1-210, looked up)
chain: MGTWILFACLLGAAFAMPLPPHPGSPGYINLSYEKSHSQAINTDRTALVLTPLKWYQSMIRQPYPSYGYEPMGGWLHHQIIPVLSQQHPPSHTLQPHHHLPVVPAQQPVAPQQPMMPVPGHHSMTPTQHHQPNIPPSAQQPFQQPFQPQAIPPQSHQPMQPQSPLHPMQPLAPQPPLPPLFSMQPLSPILPELPLEAWPATDKTKREEVD
modifications: full-length
mineral deposition in implants, Alizarin Red and von Kossa staining ([1]; 167 μg per implant): inactive

B2: rA4: recombinant polypeptide SEQ ID NO:6, secreted form of rat amelogenin gene splice product, exons 2, 3, 4, 5, 6d and 7 (protein)
chain: MPLPPHPGSPGYINLSYEKSHSQAINTDRTALVLTPLKWYQSMIRQPPLSPILPELPLEAWPATDKTKREEVD
modifications: Recombinant rat amelogenin
mineral deposition in implants, Alizarin Red and von Kossa staining ([1]; 167 μg per implant): calcified to a lesser extent
radiograph of implants after excision, mineralization pattern ([1]; 167 μg per implant): more punctate deposition of mineral
vascularization, cell infiltration and extracellular matrix in implants (H&E) ([1]; 167 μg per implant): vascularized and filled with extracellular matrix; also recorded: vascularized but more sparsely than the r(A-4) implants
mineral deposition in implants, Alizarin Red and von Kossa staining ([1]; 167 μg per implant, listed as A4): some focal deposits of mineral
ingrowth of capillaries and extracellular matrix formation, r(A-4) versus rA4 implants [1]: islands of capillaries, and the formation of a surrounding extracellular matrix was also evident
activity in inducing onset of osteogenesis in muscle implants in vivo [1]: equivalent to rBMP-2
activity in directing change in phenotype of embryonic rat muscle fibroblasts in vitro [2]: equivalent to rBMP-2
stimulation of 35S-SO4-labeled proteoglycan production at low concentrations, relative to r(A-4) ([2]; equivalent low (ng/ml) concentrations): less active
effect on sulfate incorporation compared with rhBMP-2 positive control ([2]; rhBMP-2 at 10 ng/ml): quite comparable
cell number (growth factor action) [3]: increase

— US6677306B1, “Chondrogenic and osteogenic inducing molecule” (Northwestern University, priority 1998, dated 2004)
